Data taken from PubChem BioAssay (NCI).
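Grown in 96-well plates, cells were treated for 48 hours with each compound at five concentrations. Insufficient inhibition: endpoint recorded as highest concentration tested. GI50: concentration for 50% inhibition of growth. TGI denotes the concentration required for complete inhibition of growth.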

Columns and labels:
Experiment in all cases: inhibition of tumour cell growth, NCI panel, 48 h
HL-60(TB) leukemia = test system: HL-60(TB) leukemia
OVCAR-5 ovarian = test system: OVCAR-5 ovarian
OVCAR-3 ovarian = test system: OVCAR-3 ovarian
UO-31 renal = test system: UO-31 renal
SNB-19 CNS = test system: SNB-19 CNS
HCT-116 colon = test system: HCT-116 colon
SN12C renal = test system: SN12C renal
RXF 393 renal = test system: RXF 393 renal
OVCAR-4 ovarian = test system: OVCAR-4 ovarian
CCRF-CEM leukemia = test system: CCRF-CEM leukemia

Compound: Oc1cccc(-c2nc3ccccc3s2)c1
- TGI (HL-60(TB) leukemia): > 100 µM
- TGI (OVCAR-5 ovarian): 51.5 µM
- TGI (OVCAR-3 ovarian): > 100 µM
- TGI (UO-31 renal): > 100 µM
- TGI (SNB-19 CNS): > 100 µM
- TGI (HCT-116 colon): > 100 µM
- TGI (SN12C renal): > 100 µM
- TGI (RXF 393 renal): > 100 µM
- TGI (OVCAR-4 ovarian): > 100 µM
- TGI (CCRF-CEM leukemia): > 100 µM

Compound: COc1ccccc1C(=O)c1cnc(NC2CCN(S(C)(=O)=O)CC2)nc1N
- GI50 (HL-60(TB) leukemia): 3.96 µM
- TGI (HL-60(TB) leukemia): 14.3 µM
- GI50 (OVCAR-5 ovarian): 4.92 µM
- TGI (OVCAR-5 ovarian): > 25 µM
- GI50 (OVCAR-3 ovarian): 9.15 µM
- TGI (OVCAR-3 ovarian): > 25 µM
- GI50 (UO-31 renal): 7.43 µM
- TGI (UO-31 renal): > 25 µM
- GI50 (SNB-19 CNS): 4.71 µM
- TGI (SNB-19 CNS): > 25 µM
- GI50 (HCT-116 colon): 4.52 µM
- TGI (HCT-116 colon): > 25 µM
- GI50 (SN12C renal): 5.48 µM
- TGI (SN12C renal): > 25 µM
- GI50 (RXF 393 renal): 4.4 µM
- TGI (RXF 393 renal): 10.5 µM
- GI50 (OVCAR-4 ovarian): 12.4 µM
- TGI (OVCAR-4 ovarian): > 25 µM
- GI50 (CCRF-CEM leukemia): 7.04 µM
- TGI (CCRF-CEM leukemia): > 24.1 µM

Compound: CC[C@]12C=CCN3CC[C@]4(C(=C(C(=O)OC)C1)Nc1cc(O)ccc14)[C@@H]32
- GI50 (HL-60(TB) leukemia): 25.8 µM
- TGI (HL-60(TB) leukemia): 72.5 µM
- GI50 (OVCAR-5 ovarian): 19.8 µM
- TGI (OVCAR-5 ovarian): 57 µM
- GI50 (OVCAR-3 ovarian): 17.7 µM
- TGI (OVCAR-3 ovarian): 33.9 µM
- GI50 (UO-31 renal): 12.9 µM
- TGI (UO-31 renal): 25.8 µM
- GI50 (SNB-19 CNS): 18 µM
- TGI (SNB-19 CNS): 44.2 µM
- GI50 (HCT-116 colon): 16.2 µM
- TGI (HCT-116 colon): 34.3 µM
- GI50 (SN12C renal): 15.4 µM
- TGI (SN12C renal): 29.7 µM
- GI50 (RXF 393 renal): 13.3 µM
- TGI (RXF 393 renal): 28.9 µM
- GI50 (OVCAR-4 ovarian): 22 µM
- TGI (OVCAR-4 ovarian): 76.4 µM
- GI50 (CCRF-CEM leukemia): 25.3 µM
- TGI (CCRF-CEM leukemia): > 100 µM

Compound: Cc1ccc([P+](Cc2ccc([N+](=O)[O-])cc2)(c2ccc(C)cc2)c2ccc(C)cc2)cc1
- GI50 (HL-60(TB) leukemia): 0.997 µM
- TGI (HL-60(TB) leukemia): 3.14 µM
- GI50 (OVCAR-5 ovarian): 6.68 µM
- TGI (OVCAR-5 ovarian): 23.3 µM
- GI50 (OVCAR-3 ovarian): 1.71 µM
- TGI (OVCAR-3 ovarian): 7.07 µM
- GI50 (UO-31 renal): 13.3 µM
- TGI (UO-31 renal): 31.5 µM
- GI50 (SNB-19 CNS): 3.25 µM
- TGI (SNB-19 CNS): 13.6 µM
- GI50 (HCT-116 colon): 1.49 µM
- TGI (HCT-116 colon): 12 µM
- GI50 (SN12C renal): 4.27 µM
- TGI (SN12C renal): 17.5 µM
- GI50 (RXF 393 renal): 5.55 µM
- TGI (RXF 393 renal): 20.2 µM
- GI50 (OVCAR-4 ovarian): 2.2 µM
- TGI (OVCAR-4 ovarian): 11.3 µM
- GI50 (CCRF-CEM leukemia): 1.92 µM
- TGI (CCRF-CEM leukemia): 12.5 µM

Compound: CN1CCCC1c1cccnc1.O=C(O)c1ccccc1O.O=C([O-])c1ccccc1[OH2+].O=C([O-])c1ccccc1[OH2+].O=C([O-])c1ccccc1[OH2+].[Mn+2] (centres undefined)
- GI50 (HL-60(TB) leukemia): > 100 µM
- TGI (HL-60(TB) leukemia): > 100 µM
- GI50 (OVCAR-5 ovarian): 63.5 µM
- TGI (OVCAR-5 ovarian): > 100 µM
- GI50 (OVCAR-3 ovarian): 11.4 µM
- TGI (OVCAR-3 ovarian): 39.3 µM
- GI50 (UO-31 renal): > 100 µM
- TGI (UO-31 renal): > 100 µM
- GI50 (SNB-19 CNS): > 100 µM
- TGI (SNB-19 CNS): > 100 µM
- GI50 (HCT-116 colon): > 100 µM
- TGI (HCT-116 colon): > 100 µM
- GI50 (SN12C renal): > 100 µM
- TGI (SN12C renal): > 100 µM
- GI50 (RXF 393 renal): > 100 µM
- TGI (RXF 393 renal): > 100 µM
- GI50 (OVCAR-4 ovarian): > 100 µM
- TGI (OVCAR-4 ovarian): > 100 µM
- GI50 (CCRF-CEM leukemia): 23.3 µM
- TGI (CCRF-CEM leukemia): > 100 µM

Compound: COC(=O)[C@H](Cc1ccccc1)NC(=O)c1csc([C@@H](C[C@H](C(C)C)N(C)C(=O)[C@@H](NC(=O)[C@H]2CCCCN2C)C2CC2)OC(C)=O)n1
- GI50 (HL-60(TB) leukemia): 0.0137 µM
- TGI (HL-60(TB) leukemia): 0.193 µM
- GI50 (OVCAR-5 ovarian): 0.316 µM
- TGI (OVCAR-5 ovarian): > 25 µM
- GI50 (OVCAR-3 ovarian): 0.0102 µM
- TGI (OVCAR-3 ovarian): 0.063 µM
- GI50 (UO-31 renal): 0.258 µM
- TGI (UO-31 renal): > 25 µM
- TGI (SNB-19 CNS): > 25 µM
- GI50 (HCT-116 colon): 0.0197 µM
- TGI (HCT-116 colon): > 25 µM
- GI50 (SN12C renal): 0.103 µM
- TGI (SN12C renal): > 25 µM
- GI50 (RXF 393 renal): 0.0351 µM
- TGI (RXF 393 renal): > 25 µM
- GI50 (OVCAR-4 ovarian): 1.62 µM
- TGI (OVCAR-4 ovarian): > 25 µM
- GI50 (CCRF-CEM leukemia): 0.021 µM
- TGI (CCRF-CEM leukemia): > 25 µM

Compound: CC1=CC2=C(C)C3(CC3)[C@@](C)(O)C(=O)C2=C1
- TGI (HL-60(TB) leukemia): 0.587 µM
- TGI (OVCAR-5 ovarian): 0.454 µM
- TGI (OVCAR-3 ovarian): 0.352 µM
- TGI (UO-31 renal): 0.337 µM
- TGI (SNB-19 CNS): 0.545 µM
- TGI (HCT-116 colon): 0.357 µM
- TGI (SN12C renal): 0.557 µM
- TGI (RXF 393 renal): 0.246 µM
- TGI (OVCAR-4 ovarian): 0.356 µM
- TGI (CCRF-CEM leukemia): > 1 µM

Compound: CCOC(=O)c1cnc2[nH]c(=O)c3ccccc3n2c1=O
- TGI (HL-60(TB) leukemia): > 100 µM
- TGI (OVCAR-5 ovarian): > 100 µM
- TGI (OVCAR-3 ovarian): > 100 µM
- TGI (UO-31 renal): > 100 µM
- TGI (SNB-19 CNS): > 100 µM
- TGI (HCT-116 colon): > 100 µM
- TGI (SN12C renal): > 100 µM
- TGI (RXF 393 renal): > 100 µM
- TGI (OVCAR-4 ovarian): > 100 µM
- TGI (CCRF-CEM leukemia): > 100 µM

Compound: O=C1OC(c2ccc(O)cc2)(c2ccc(O)cc2)c2cccc3cccc1c23
- GI50 (HL-60(TB) leukemia): 18 µM
- TGI (HL-60(TB) leukemia): 45.5 µM
- GI50 (OVCAR-5 ovarian): 16.5 µM
- TGI (OVCAR-5 ovarian): 31.7 µM
- GI50 (OVCAR-3 ovarian): 3.53 µM
- TGI (OVCAR-3 ovarian): 19.9 µM
- GI50 (UO-31 renal): 12.5 µM
- TGI (UO-31 renal): 28.9 µM
- GI50 (SNB-19 CNS): 16.8 µM
- TGI (SNB-19 CNS): 34.5 µM
- GI50 (HCT-116 colon): 15.6 µM
- TGI (HCT-116 colon): 31.5 µM
- GI50 (SN12C renal): 12.7 µM
- TGI (SN12C renal): 38.4 µM
- GI50 (RXF 393 renal): 14.6 µM
- TGI (RXF 393 renal): 29.9 µM
- GI50 (OVCAR-4 ovarian): 0.18 µM
- TGI (OVCAR-4 ovarian): 17.4 µM
- GI50 (CCRF-CEM leukemia): 19.8 µM
- TGI (CCRF-CEM leukemia): 48.4 µM

Compound: Cn1c(=O)c2c3oc(=O)cc(O)c3c(=O)n3c4ccccc4n(c1=O)c23
- TGI (HL-60(TB) leukemia): 78.7 µM
- TGI (OVCAR-5 ovarian): > 100 µM
- TGI (OVCAR-3 ovarian): 78.6 µM
- TGI (UO-31 renal): > 100 µM
- TGI (SNB-19 CNS): > 100 µM
- TGI (HCT-116 colon): > 100 µM
- TGI (SN12C renal): > 100 µM
- TGI (RXF 393 renal): > 100 µM
- TGI (OVCAR-4 ovarian): > 100 µM
- TGI (CCRF-CEM leukemia): > 100 µM
